Experiments:
[1] = test system: central memory CD8+ T cells (TCM); test: Proliferation of the central memory subpopulation of CD8+ T cells of HIV-1 infected individuals; assay type: cell-based, human; settings: 7 days
Description: (§1) 1. Peripheral blood mononuclear cells (PBMC) of HIV-1 infected individuals were isolated.
(§2) 2. CD8+ T cells were sorted using an EasySep™ Negative Selection Human CD8+ T cell Enrichment kit (Stemcell: 19053).
(§3) 3. The sorted CD8 cells were stained using Cell Proliferation Dye eFluor 670 (ebioscience: 65-0840-90).
(§4) 4. The cells were placed in a 96-well U-shaped bottom plate with 1×10^5 cells per well.
(§5) 5. The following stimulants and TLR agonists (invivoGen: tlr-kit1hw, human TLR1-9 Agonist KIT) were added in groups:
(§6) (The anti-human CD3 antibody and the anti-human CD28 antibody in the form of coated magnetic beads (CELLection Pan Mouse IgG Kit, Invitrogen: 11531D) were used to stimulate the cells, wherein the ratio of the cells to the magnetic beads was 1:1)
(§7) 6. The cells were cultured in the 96-well U-shaped bottom plate, and cultured in a cell incubator for 7 days.
(§8) 7. The cells were labeled with antibodies CD8 (BD: 561423), CD45RA (eBioscience: 25-0458-42) and CCR7 (eBioscience: 17-1979-42), and the influence of different TLR agonists on the proliferation of CD8+ T subpopulations (TNaive: Naive T cells, TCM: central memory T cells, TEM: effector memory T cells) was detected by a flow cytometer.

[2] = test system: effector memory T cells (TEM); test: Proliferation of the effector memory subpopulation of CD8+ T cells of healthy subjects; assay type: cell-based; settings: in combination with anti-human CD3 antibody, compared with anti-human CD3 beads alone, 7 days
Description: (§9) 1. Peripheral blood mononuclear cells (PBMC) of healthy subjects were isolated.
(§10) 2. CD8+ T cells were sorted using an EasySep™ Negative Selection Human CD8+ T cell Enrichment kit (stem cell: 19053).
as §3, §4, §5
(§11) (The anti-human CD3 antibody used was magnetic beads coated with the antibody (CELLection Pan Mouse IgG Kit, Invitrogen: 11531D), wherein the ratio of the cells to the magnetic beads was 1:1)
as §7
as §8, with “by” for “by a”, “cytometry.” for “cytometer.”

[3] = test system: central memory CD8+ T cells (TCM); test: Proliferation of the central memory subpopulation of CD8+ T cells of healthy subjects; assay type: cell-based; settings: in combination with anti-human CD3 antibody, compared with anti-human CD3 beads alone, 7 days
Description: as §9, §10, §3, §4, §5, §11, §7
as §8, with “by” for “by a”, “cytometry.” for “cytometer.”

[4] = test system: effector memory T cells (TEM); test: Proliferation of the effector memory subpopulation of CD8+ T cells of HIV-1 infected individuals; assay type: cell-based, human; settings: 7 days
Description: as §1, §2, §3, §4, §5, §6, §7, §8

CD8+ T cells = test: Proliferation of sorted CD8+ T cells of healthy subjects (eFluor 670 dye, flow cytometry, 7 days); assay type: cell-based; settings: in combination with anti-human CD3 antibody, compared with magnetic beads coated with anti-human CD3 antibody alone
Description: 1. Peripheral blood mononuclear cells (PBMC) of healthy subjects were isolated according to Example 1.
as §2, §3, §4, §5
(The anti-human CD3 antibody and the anti-human CD28 antibody used were magnetic beads coated with the antibodies (CELLection Pan Mouse IgG Kit, Invitrogen: 11531D), wherein the ratio of the cells to the magnetic beads was 1:1)
as §7
7. The proliferation of the CD8+ T cells was detected by a flow cytometer under the stimulation conditions of different TLR agonists. FIG. 1A is a diagram showing the proliferation of CD8 cells under the conditions of blank control (left panel) as well as an anti-human CD3 antibody and an anti-human CD28 antibody (right panel). FIG. 1B is a statistical chart showing the proliferation proportion of CD8 cells under different stimulation conditions.

[5] = added to anti-human CD3/28 beads, compared with anti-human CD3/28 beads
[6] = added to anti-human CD3 beads, compared with anti-human CD3 beads alone

Row | Molecule | proliferation of central memory CD8+ T cells (TCM) [1, 5] | proliferation of central memory CD8+ T cells (TCM) [1, 6] | proliferation of effector memory T cells (TEM) [2] | proliferation of central memory CD8+ T cells (TCM) [3] | proliferation of effector memory T cells (TEM) [4, 5] | proliferation of effector memory T cells (TEM) [4, 6] | proliferation of CD8+ T cells (CD8+ T cells)
1 | FSL-1 | further enhanced | more effectively stimulated | effectively stimulated | effectively stimulated | further enhanced | more effectively stimulated | effectively stimulated
2 | Flagellin: TLR5 agonist, S. typhimurium Flagellin (invivoGen: tlrl-epstfla-5) (protein, UniProt P06179 2-495, looked up) Flagellin: AQVINTNSLSLLTQNNLNKSQSALGTAIERLSSGLRINSAKDDAAGQAIANRFTANIKGLTQASRNANDGISIAQTTEGALNEINNNLQRVRELAVQSANSTNSQSDLDSIQAEITQRLNEIDRVSGQTQFNGVKVLAQDNTLTIQVGANDGETIDIDLKQINSQTLGLDTLNVQQKYKVSDTAATVTGYADTTIALDNSTFKASATGLGGTDQKIDGDLKFDDTTGKYYAKVTVTGGTGKDGYYEVSVDKTNGEVTLAGGATSPLTGGLPATATEDVKNVQVANADLTEAKAALTAAGVTGTASVVKMSYTDNNGKTIDGGLAVKVGDDYYSATQNKDGSISINTTKYTADDGTSKTALNKLGGADGKTEVVSIGGKTYAASKAEGHNFKAQPDLAEAAATTTENPLQKIDAALAQVDTLRSDLGAVQNRFNSAITNLGNTVNNLTSARSRIEDSDYATEVSNMSRAQILQQAGTSVLAQANQVPQNVLSLLR | further enhanced | more effectively stimulated | effectively stimulated | effectively stimulated | further enhanced | more effectively stimulated | effectively stimulated

From US11773373B2, “Method for amplifying CD8+T cells and cell subpopulations thereof in-vitro” (Shanghai Innovative Chang'An Biological Technology Co., Ltd., priority 2017, dated 2023)
